Data reported in BindingDB's records for doi:10.7270/Q2PK0DMQ (The Scripps Research Institute Molecular Screening Center, 2010).

Target: Protein-arginine deiminase type-4 (Homo sapiens, UniProt Q9UM07)
Test: IC50 against protein arginine deiminase 4 – biochemical, fluorescence readout, dose response (AID 492970)

Chain of Protein-arginine deiminase type-4 (Q9UM07 whole entry): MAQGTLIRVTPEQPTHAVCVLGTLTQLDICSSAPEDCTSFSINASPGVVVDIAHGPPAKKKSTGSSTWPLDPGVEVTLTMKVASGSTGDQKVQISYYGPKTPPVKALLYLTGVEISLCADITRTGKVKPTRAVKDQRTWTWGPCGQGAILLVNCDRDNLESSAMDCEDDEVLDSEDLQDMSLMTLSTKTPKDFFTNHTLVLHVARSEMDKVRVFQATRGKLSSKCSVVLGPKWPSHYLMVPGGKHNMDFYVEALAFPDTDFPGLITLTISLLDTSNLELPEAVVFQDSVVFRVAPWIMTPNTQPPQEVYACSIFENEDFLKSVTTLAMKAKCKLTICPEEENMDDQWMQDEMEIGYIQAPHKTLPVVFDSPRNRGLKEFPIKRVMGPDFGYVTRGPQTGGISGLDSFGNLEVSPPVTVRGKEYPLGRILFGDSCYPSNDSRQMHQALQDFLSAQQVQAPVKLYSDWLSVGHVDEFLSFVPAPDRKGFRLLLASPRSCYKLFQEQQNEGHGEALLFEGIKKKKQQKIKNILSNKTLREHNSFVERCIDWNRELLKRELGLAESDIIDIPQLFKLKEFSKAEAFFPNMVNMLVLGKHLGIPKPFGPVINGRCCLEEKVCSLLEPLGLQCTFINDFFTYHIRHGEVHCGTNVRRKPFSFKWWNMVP

IC50: 100 µM
SMILES: O=C1NCC2=Nc3ccccc3NC(c3ccccc3)C12 (stereo unspecified) [MLS000106925]
